Test results from US9326956B2, “Methods for improving brain development and cognitive function using beta-hydroxy-beta methylbutyrate” (Abbott Laboratories, priority 2011, dated 2016).

What was measured:
[1] = HMB concentration over time in brain interstitial fluid (hippocampus microdialysis) after oral administration; type: in vivo, Sprague-Dawley rats
Procedure: In this Example, the appearance of HMB and its concentration over time in brain interstitial fluid were analyzed after oral administration of HMB.
Initially, Sprague-Dawley rats (Charles River, France) weighing 400-500 g were housed in cages at constant room temperature (22±2° C.) and 45-55% humidity under a regular 12-hour light/dark schedule. Food and water were freely available. Procedures involving animals and their care were conducted in conformity with the institutional guidelines that are in compliance with national laws and EC policies for the Care and Use of Laboratory Animals (RD 2101-2005, 86/609/CEE).
A guide cannula was stereotaxically inserted into the hippocampus area of each anesthetized rat at the coordinates described in a stereotaxic atlas for rats. The rats were allowed to recover from surgery for at least three days. On the first day of the experiment, a brain microdialysis probe (MD-2204, BR-4, 4 mm membrane, available from BASi, West Lafayette, Ind.) was inserted into the guide cannula of each rat. The probe was perfused with Ringer's solution (aCFS Harvard apparatus, #597316) at a constant rate of 2 μl/min. The rat was left in the cage with space for relatively free movement. Samples of dialysate were automatically collected every twenty minutes. A bolus dose of HMB (250 mg/kg body weight) was given by gavage 100 min after starting the experiment and sampling was continued for another 160-220 min.
HMB was measured using UPLC-MS. Specifically, samples of 30-40 μl in aCSF were microfiltered through a 0.2 μm nylon filter, diluted with an equal amount of water, and then injected into the UPLC-TQD (Acuity-TQD system available from Waters Corporation, Milford, Mass.). HMB was analyzed using a BEH Hillic column 1.7 μm; 2.1×150 mm using a gradient consisting of H2O:MeCN 0.1% formic acid. The mass spectrometer was set to Ion Mode ES+.

Neuro-2A cells = assay: Rate of protein synthesis, incorporation of [3H]-tyrosine into cellular protein pool; type: cell-based; settings: HMB vs. Control, FIG. 4
Procedure: The effect of HMB on the rate of protein synthesis in Neuro-2A cells was determined by measuring the incorporation of [3H]-tyrosine into cellular protein pool. The phosphorylative status of mTOR and up/down-protein kinases (Akt, ERK 1/2) was determined by western blot. The cell proliferation/viability was determined with the MTT (3-(4,5-dimethylthiazol-2-yl)-2,5-diphenyltetrazolium bromide) colorimetric assay. Data are expressed as mean±SEM. Student t-test was used to analyze the results.

[2] = system: MEF2 transcription factor; assay: MEF2-dependent transcription luciferase activity (pGL3-4xMEF transfection); type: cell-based; settings: Neuro 2A cells; inhibitor added with HMB; FIGS. 5B-5D
Procedure: For the transfection experiments in this Example, Neuro-2A cells were used at 80-90% confluence grown in Dulbecco's Modified Eagle's medium (DMEM). Cells were exposed for 5 hours to plasmid pGL3-4×MEF, which contains 4 copies in tandem of the MEF2D binding DNA sequence prior to the sequence of DNA which codes for firefly luciferase. Effectors were added to the medium for 18 h and luciferase activity was determined. For the study of inhibition of signaling factors, inhibitors of the phosphatidyl-inositol 3 kinase (LY294002), ERK 1/2 (PD98059) and mTORC1 activations (rapamycin) were added to the cells.
Data are expressed as mean±SEM. Student t-test was used to analyze the results.

CC(C)(O)CC(=O)O [HMB, beta-hydroxy-beta-methylbutyrate]
crossing of the blood brain barrier ([1]; oral administration, microdialysis model in rats): able to cross the blood brain barrier
maximum concentration of HMB measured in brain microdialysates ([1]; rat 1, 250 mg/kg bolus by gavage): 10.5 ppm
time after administration at which HMB appeared in the brain ([1]; rat 1, 250 mg/kg bolus by gavage, brain microdialysate (fraction 7)): 40 min
HMB concentration level at end of sampling ([1]; rat 1, more than 2.5 hours after the gavage): had not decreased
maximum concentration of HMB in brain microdialysates ([1]; rat 2, 250 mg/kg bolus by gavage): more than 4 ppm
fraction in which HMB was detected for the first time ([1]; rat 2, 250 mg/kg by gavage at fraction 5, 20 min fractions): fraction 7
HMB concentration level at end of experiment ([1]; rat 2, more than 3.5 h after the gavage): had not yet reached basal level
increase on the protein synthesis (Neuro-2A cells): 20%

COc1cccc(-c2cc(=O)c3ccccc3o2)c1N [PD98059]
effect of inhibitor on the HMB-mediated increase in MEF2 [2]: totally blocked
